Reference: patent US11981658B2, “Substituted aminopyridine compounds as EGFR inhibitors” (YUHAN CORPORATION, priority 2021, dated 2024)
Read-outs that look alike come from different tables or passages of the source.

Tests used:
EGFR L858R/T790M/C797S = EGFR L858R/T790M/C797S (Homo sapiens, UniProt P00533, C797S/L858R/T790M); assay: Biochemical EGFR kinase inhibition assay (Lance Ultra TR-FRET), triple mutant L858R/T790M/C797S
How it was run: (§1)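 Step 1: compound in kinase buffer, 0.003–10 μM. Step 2: kinase reaction 1 h at room temperature. Step 4: TR-FRET read at 615/665 nm; IC50 calculated.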

EGFR L858R/C797S = EGFR L858R/C797S (Homo sapiens, UniProt P00533, C797S/L858R); assay: Biochemical EGFR kinase inhibition assay (Lance Ultra TR-FRET), double mutant L858R/C797S
How it was run: as §1

EGFR Del19/C797S = EGFR Del19/C797S (Homo sapiens, UniProt P00533, C797S/DEL746-750); assay: Biochemical EGFR kinase inhibition assay (Lance Ultra TR-FRET), double mutant del19/C797S
Chain of EGFR Del19/C797S (P00533 with tags, fused parts or gaps DEL746-750/C797S): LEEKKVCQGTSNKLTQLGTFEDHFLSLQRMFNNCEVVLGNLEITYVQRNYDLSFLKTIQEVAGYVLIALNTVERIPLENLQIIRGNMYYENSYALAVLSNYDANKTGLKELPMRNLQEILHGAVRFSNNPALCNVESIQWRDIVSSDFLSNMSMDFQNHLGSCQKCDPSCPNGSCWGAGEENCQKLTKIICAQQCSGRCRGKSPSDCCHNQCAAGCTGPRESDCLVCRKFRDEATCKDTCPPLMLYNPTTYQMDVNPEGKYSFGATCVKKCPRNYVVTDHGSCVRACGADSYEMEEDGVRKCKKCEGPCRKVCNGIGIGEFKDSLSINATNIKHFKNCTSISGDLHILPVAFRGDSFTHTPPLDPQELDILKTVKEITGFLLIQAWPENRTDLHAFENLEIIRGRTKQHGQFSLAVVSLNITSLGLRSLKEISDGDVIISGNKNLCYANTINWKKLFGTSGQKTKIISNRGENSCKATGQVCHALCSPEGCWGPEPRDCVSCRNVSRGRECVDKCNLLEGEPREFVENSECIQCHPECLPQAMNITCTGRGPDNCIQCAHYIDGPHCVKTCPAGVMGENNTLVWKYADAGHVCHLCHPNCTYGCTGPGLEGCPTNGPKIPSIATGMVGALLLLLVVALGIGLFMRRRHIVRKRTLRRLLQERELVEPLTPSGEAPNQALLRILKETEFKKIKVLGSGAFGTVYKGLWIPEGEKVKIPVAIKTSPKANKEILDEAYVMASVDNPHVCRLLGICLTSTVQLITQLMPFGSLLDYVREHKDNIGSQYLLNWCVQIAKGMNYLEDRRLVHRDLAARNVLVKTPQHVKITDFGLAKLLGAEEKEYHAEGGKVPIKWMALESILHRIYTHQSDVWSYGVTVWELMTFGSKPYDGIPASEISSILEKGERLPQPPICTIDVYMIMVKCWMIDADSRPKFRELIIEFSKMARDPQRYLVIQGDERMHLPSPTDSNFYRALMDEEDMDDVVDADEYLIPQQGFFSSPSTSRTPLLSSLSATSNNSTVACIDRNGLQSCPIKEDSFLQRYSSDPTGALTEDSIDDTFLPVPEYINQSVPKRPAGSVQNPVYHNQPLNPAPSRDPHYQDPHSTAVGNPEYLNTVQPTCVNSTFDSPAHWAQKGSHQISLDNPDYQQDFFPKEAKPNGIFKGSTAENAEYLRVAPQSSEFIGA
How it was run: as §1

EGFR Del19/T790M/C797S = EGFR Del19/T790M/C797S (Homo sapiens, UniProt P00533, C797S/DEL746-750/T790M); assay: Biochemical EGFR kinase inhibition assay (Lance Ultra TR-FRET), triple mutant del19/T790M/C797S
Chain of EGFR Del19/T790M/C797S (P00533 with tags, fused parts or gaps DEL746-750/T790M/C797S): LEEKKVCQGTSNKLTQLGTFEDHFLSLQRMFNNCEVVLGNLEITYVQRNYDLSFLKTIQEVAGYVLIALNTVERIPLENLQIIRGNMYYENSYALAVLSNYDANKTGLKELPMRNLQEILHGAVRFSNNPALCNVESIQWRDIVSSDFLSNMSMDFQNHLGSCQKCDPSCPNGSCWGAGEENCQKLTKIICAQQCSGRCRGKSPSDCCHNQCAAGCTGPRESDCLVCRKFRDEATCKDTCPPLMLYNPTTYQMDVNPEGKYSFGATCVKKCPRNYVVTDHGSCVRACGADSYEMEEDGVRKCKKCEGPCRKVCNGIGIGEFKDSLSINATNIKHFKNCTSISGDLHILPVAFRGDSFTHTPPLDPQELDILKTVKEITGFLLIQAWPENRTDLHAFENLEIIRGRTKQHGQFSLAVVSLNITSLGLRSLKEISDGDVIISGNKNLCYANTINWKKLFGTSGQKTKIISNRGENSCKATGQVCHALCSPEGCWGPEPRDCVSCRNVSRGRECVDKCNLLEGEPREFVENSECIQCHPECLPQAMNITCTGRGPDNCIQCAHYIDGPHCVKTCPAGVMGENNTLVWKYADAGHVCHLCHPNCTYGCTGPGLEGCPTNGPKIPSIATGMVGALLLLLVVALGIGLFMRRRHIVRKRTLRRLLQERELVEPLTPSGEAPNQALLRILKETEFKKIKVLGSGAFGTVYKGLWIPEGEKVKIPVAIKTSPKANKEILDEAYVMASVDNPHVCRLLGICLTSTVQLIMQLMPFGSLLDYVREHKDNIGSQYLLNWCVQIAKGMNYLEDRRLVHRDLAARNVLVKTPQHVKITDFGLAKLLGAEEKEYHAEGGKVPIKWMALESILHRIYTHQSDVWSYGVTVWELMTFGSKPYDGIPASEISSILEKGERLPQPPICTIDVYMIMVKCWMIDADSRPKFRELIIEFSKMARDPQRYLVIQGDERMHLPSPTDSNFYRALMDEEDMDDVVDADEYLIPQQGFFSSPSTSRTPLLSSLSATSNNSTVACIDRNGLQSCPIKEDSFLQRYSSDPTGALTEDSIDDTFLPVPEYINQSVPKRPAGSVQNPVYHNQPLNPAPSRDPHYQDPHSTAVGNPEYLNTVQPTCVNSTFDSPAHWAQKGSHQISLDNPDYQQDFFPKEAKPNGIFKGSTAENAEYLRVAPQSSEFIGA
How it was run: as §1

EGFR wildtype (WT) = EGFR wildtype (WT) (Homo sapiens, UniProt P00533); assay: Biochemical EGFR kinase inhibition assay (Lance Ultra TR-FRET), wildtype
Chain of EGFR wildtype (WT) (P00533 25-1210): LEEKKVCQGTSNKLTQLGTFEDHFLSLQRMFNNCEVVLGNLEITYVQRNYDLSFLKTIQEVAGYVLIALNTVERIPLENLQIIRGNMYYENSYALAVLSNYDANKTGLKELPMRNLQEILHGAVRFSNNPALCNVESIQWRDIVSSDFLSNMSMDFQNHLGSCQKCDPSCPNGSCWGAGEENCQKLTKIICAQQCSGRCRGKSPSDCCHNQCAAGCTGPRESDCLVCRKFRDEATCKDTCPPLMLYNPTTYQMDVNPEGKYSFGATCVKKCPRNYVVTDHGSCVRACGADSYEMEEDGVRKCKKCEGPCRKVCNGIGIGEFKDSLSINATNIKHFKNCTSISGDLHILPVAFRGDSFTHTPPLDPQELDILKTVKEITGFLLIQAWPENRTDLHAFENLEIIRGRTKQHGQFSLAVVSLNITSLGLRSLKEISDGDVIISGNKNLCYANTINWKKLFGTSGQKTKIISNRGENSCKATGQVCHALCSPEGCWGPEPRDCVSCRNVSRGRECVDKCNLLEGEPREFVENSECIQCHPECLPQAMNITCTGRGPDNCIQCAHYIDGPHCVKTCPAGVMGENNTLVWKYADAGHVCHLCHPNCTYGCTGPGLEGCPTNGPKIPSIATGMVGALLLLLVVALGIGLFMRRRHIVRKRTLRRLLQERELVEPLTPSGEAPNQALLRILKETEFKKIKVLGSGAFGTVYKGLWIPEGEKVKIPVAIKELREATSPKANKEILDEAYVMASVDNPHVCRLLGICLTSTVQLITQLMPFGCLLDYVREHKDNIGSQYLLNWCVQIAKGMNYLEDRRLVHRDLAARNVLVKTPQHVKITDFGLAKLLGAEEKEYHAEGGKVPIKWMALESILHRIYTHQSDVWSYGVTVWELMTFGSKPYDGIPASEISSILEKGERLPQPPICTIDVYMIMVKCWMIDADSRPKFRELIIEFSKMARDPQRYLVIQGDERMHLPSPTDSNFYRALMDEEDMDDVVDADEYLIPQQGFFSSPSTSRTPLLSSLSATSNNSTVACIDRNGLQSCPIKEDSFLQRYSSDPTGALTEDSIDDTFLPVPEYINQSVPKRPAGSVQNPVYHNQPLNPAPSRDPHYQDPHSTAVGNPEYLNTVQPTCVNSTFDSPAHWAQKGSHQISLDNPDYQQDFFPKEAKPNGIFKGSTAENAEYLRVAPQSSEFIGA
How it was run: as §1

[1] = ATP at Km, read-out: IC50 L858R/T790M/C797S (nM), Km ATP
[2] = IC50 L858R/T790M/C797S (nM), 100 μM ATP
[3] = ATP at Km, read-out: IC50 L858R/C797S (nM), Km ATP
[4] = IC50 L858R/C797S (nM), 100 μM ATP
[5] = ATP at Km, read-out: IC50 Del19/C797S (nM), Km ATP
[6] = IC50 Del19/C797S (nM), 100 μM ATP
[7] = ATP at Km, read-out: IC50 Del19/T790M/C797S (nM), Km ATP
[8] = IC50 Del19/T790M/C797S (nM), 100 μM ATP
[9] = ATP at Km, read-out: IC50 WT (nM), Km ATP
[10] = Km ATP, read-out: IC50 L858R/T790M/C797S (nM), Km ATP
[11] = Km ATP, read-out: IC50 L858R/C797S (nM), Km ATP
[12] = Km ATP, read-out: IC50 Del19/C797S (nM), Km ATP
[13] = Km ATP, read-out: IC50 Del19/T790M/C797S (nM), Km ATP
[14] = Km ATP, read-out: IC50 WT (nM), Km ATP

Chain of EGFR L858R/T790M/C797S (P00533 25-1210 T790M/C797S/L858R): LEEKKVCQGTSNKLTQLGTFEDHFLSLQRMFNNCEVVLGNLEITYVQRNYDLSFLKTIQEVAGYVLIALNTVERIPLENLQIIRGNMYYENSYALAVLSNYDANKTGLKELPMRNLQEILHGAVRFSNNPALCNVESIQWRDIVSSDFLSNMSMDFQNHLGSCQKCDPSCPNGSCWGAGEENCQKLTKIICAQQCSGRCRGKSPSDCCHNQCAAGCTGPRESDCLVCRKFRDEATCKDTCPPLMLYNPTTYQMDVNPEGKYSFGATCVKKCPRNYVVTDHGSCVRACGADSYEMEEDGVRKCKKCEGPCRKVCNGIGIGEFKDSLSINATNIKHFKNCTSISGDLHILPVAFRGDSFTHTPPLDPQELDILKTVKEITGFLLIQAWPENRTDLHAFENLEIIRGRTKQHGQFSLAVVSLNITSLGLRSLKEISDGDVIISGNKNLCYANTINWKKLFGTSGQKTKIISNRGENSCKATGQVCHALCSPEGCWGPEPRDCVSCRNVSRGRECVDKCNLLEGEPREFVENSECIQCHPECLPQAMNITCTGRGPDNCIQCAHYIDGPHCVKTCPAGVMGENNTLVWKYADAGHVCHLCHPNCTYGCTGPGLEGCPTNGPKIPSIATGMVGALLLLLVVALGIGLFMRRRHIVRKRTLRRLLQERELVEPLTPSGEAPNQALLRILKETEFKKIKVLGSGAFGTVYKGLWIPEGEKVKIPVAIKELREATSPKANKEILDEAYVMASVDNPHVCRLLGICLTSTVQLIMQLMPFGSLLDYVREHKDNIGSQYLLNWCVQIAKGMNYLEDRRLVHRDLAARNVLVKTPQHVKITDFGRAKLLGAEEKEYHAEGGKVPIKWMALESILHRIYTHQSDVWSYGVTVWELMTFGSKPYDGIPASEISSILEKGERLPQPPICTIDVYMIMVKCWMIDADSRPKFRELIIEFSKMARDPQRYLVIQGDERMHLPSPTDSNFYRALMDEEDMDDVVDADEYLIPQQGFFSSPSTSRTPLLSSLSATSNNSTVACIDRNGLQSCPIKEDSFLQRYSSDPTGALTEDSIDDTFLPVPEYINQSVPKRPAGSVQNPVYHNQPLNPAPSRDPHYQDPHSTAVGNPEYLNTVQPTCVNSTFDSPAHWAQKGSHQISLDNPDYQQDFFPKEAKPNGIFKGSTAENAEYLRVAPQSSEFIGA

SMILES	IC50 (EGFR L858R/T790M/C797S; [1])	IC50 (EGFR L858R/T790M/C797S; [2])	IC50 (EGFR L858R/C797S; [3])	IC50 (EGFR L858R/C797S; [4])	IC50 (EGFR Del19/C797S; [5])	IC50 (EGFR Del19/C797S; [6])	IC50 (EGFR Del19/T790M/C797S; [7])	IC50 (EGFR Del19/T790M/C797S; [8])	IC50 (EGFR wildtype (WT); [9])	IC50 (EGFR wildtype (WT); IC50 WT (nM), 100 μM ATP)	IC50 (EGFR L858R/T790M/C797S; [10])	IC50 (EGFR L858R/C797S; [11])	IC50 (EGFR Del19/C797S; [12])	IC50 (EGFR Del19/T790M/C797S; [13])	IC50 (EGFR wildtype (WT); [14])
C[C@]1(O)CC[C@@H](Nc2cc(Nc3ccnc(-c4cnn(S(=O)(=O)C5CC5)c4)n3)ncc2C#Cc2cnn(CC(F)F)c2)CC1 [Example 323, (1s,4s)-4-((2-((2-(1-(Cyclopropylsulfonyl)-1H-pyrazol-4-yl)pyrimidin-4-yl)amino)-5-((1-(2,2-difluoroethyl)-1H-pyrazol-4-yl)ethynyl)pyridin-4-yl)amino)-1-methylcyclohexan-1-ol]	0.2 nM	0.8 nM	14.3 nM	184 nM	4.5 nM	7.4 nM	0.3 nM	0.6 nM	146 nM	> 10000 nM	–	–	–	–	–
O=S(=O)(C1CC1)n1cc(-c2nccc(Nc3cc(N[C@H]4CC[C@@H](CO)CC4)c(C#Cc4cnn(CC(F)F)c4)cn3)n2)cn1 [Example 324, ((1s,4s)-4-((2-((2-(1-(Cyclopropylsulfonyl)-1H-pyrazol-4-yl)pyrimidin-4-yl)amino)-5-((1-(2,2-difluoroethyl)-1H-pyrazol-4-yl)ethynyl)pyridin-4-yl)amino)cyclohexyl)methanol]	0.2 nM	0.5 nM	3.7 nM	20.9 nM	1.3 nM	2 nM	0.3 nM	0.3 nM	16.5 nM	> 10000 nM	–	–	–	–	–
CC(C)(O)[C@H]1CC[C@@H](Nc2cc(Nc3ccnc(-c4cnn(S(=O)(=O)C5CC5)c4)n3)ncc2C#Cc2cnn(CC(F)F)c2)CC1 [Example 325, 2-((1s,4s)-4-((2-((2-(1-(Cyclopropylsulfonyl)-1H-pyrazol-4-yl)pyrimidin-4-yl)amino)-5-((1-(2,2-difluoroethyl)-1H-pyrazol-4-yl)ethynyl)pyridin-4-yl)amino)cyclohexyl)propan-2-ol]	0.8 nM	2.1 nM	16.3 nM	89.8 nM	6.2 nM	6.9 nM	0.9 nM	1.1 nM	115 nM	> 10000 nM	–	–	–	–	–
CC1(O)CCC(Nc2cc(Nc3ccnc(-c4cnn(S(=O)(=O)C5CC5)c4)n3)ncc2C#Cc2cnn(C3CC3(F)F)c2)CC1 (centres unmarked) [Example 326, (1s,4s)-4-((2-((2-(1-(Cyclopropylsulfonyl)-1H-pyrazol-4-yl)pyrimidin-4-yl)amino)-5-((1-(2,2-difluorocyclopropyl)-1H-pyrazol-4-yl)ethynyl)pyridin-4-yl)amino)-1-methylcyclohexan-1-ol]	0.6 nM	2.1 nM	5.3 nM	145 nM	10.3 nM	19.2 nM	1.9 nM	1.9 nM	17.6 nM	> 10000 nM	–	–	–	–	–
O=S(=O)(C1CC1)n1cc(-c2nccc(Nc3cc(NC4CCC(CO)CC4)c(C#Cc4cnn(C5CC5(F)F)c4)cn3)n2)cn1 (centres unmarked) [Example 327, ((1s,4s)-4-((2-((2-(1-(Cyclopropylsulfonyl)-1H-pyrazol-4-yl)pyrimidin-4-yl)amino)-5-((1-(2,2-difluorocyclopropyl)-1H-pyrazol-4-yl)ethynyl)pyridin-4-yl)amino)cyclohexyl)methanol]	0.8 nM	1.5 nM	2.1 nM	39.3 nM	1.6 nM	4.8 nM	2.2 nM	2.5 nM	11.9 nM	> 10000 nM	–	–	–	–	–
CC(O)C1CCN(c2cc(Nc3ccnc(-c4cnn(S(=O)(=O)C5CC5)c4)n3)ncc2C#Cc2cnn(C(F)(F)F)c2)CC1 (centres unmarked) [Example 328, 1-(1-(2-((2-(1-(Cyclopropylsulfonyl)-1H-pyrazol-4-yl)pyrimidin-4-yl)amino)-5-((1-(trifluoromethyl)-1H-pyrazol-4-yl)ethynyl)pyridin-4-yl)piperidin-4-yl)ethan-1-ol]	1 nM	22.7 nM	25.8 nM	47.4 nM	36.6 nM	648 nM	5.3 nM	3.1 nM	162 nM	> 10000 nM	–	–	–	–	–
CC(C)(O)C1CCN(c2cc(Nc3ccnc(-c4cnn(S(=O)(=O)C5CC5)c4)n3)ncc2C#Cc2cnn(C(F)(F)F)c2)CC1 [Example 329, 2-(1-(2-((2-(1-(Cyclopropylsulfonyl)-1H-pyrazol-4-yl)pyrimidin-4-yl)amino)-5-((1-(trifluoromethyl)-1H-pyrazol-4-yl)ethynyl)pyridin-4-yl)piperidin-4-yl)propan-2-ol]	1.7 nM	3 nM	47.6 nM	125 nM	81.8 nM	1080 nM	21.2 nM	5.9 nM	700 nM	> 10000 nM	–	–	–	–	–
O=S(=O)(C1CC1)n1cc(-c2nccc(Nc3cc(N4CCC(C5(O)CC5)CC4)c(C#Cc4cnn(C(F)(F)F)c4)cn3)n2)cn1 [Example 330, 1-(1-(2-((2-(1-(Cyclopropylsulfonyl)-1H-pyrazol-4-yl)pyrimidin-4-yl)amino)-5-((1-(trifluoromethyl)-1H-pyrazol-4-yl)ethynyl)pyridin-4-yl)piperidin-4-yl)cyclopropan-1-ol]	2.2 nM	6.2 nM	17.6 nM	45.5 nM	55.5 nM	771 nM	1.9 nM	5.2 nM	272 nM	> 10000 nM	–	–	–	–	–
O=S(=O)(C1CC1)n1cc(-c2nccc(Nc3cc(N4C[C@@H]5[C@@H](CO)[C@@H]5C4)c(C#Cc4cnn(C(F)(F)F)c4)cn3)n2)cn1 [Example 331, ((1R,5S,6r)-3-(2-((2-(1-(Cyclopropylsulfonyl)-1H-pyrazol-4-yl)pyrimidin-4-yl)amino)-5-((1-(trifluoromethyl)-1H-pyrazol-4-yl)ethynyl)pyridin-4-yl)-3-azabicyclo[3.1.0]hexan-6-yl)methanol]	–	13.9 nM	–	9130 nM	–	245 nM	–	10.3 nM	–	> 10000 nM	5 nM	173 nM	87.5 nM	6.1 nM	309 nM
O=S(=O)(C1CC1)n1cc(-c2nccc(Nc3cc(N4[C@@H]5CC[C@H]4C[C@H](CO)C5)c(C#Cc4cnn(C(F)(F)F)c4)cn3)n2)cn1 [Example 332, ((1R,3s,5S)-8-(2-((2-(1-(Cyclopropylsulfonyl)-1H-pyrazol-4-yl)pyrimidin-4-yl)amino)-5-((1-(trifluoromethyl)-1H-pyrazol-4-yl)ethynyl)pyridin-4-yl)-8-azabicyclo[3.2.1]octan-3-yl)methanol]	–	21.6 nM	–	> 10000 nM	–	1730 nM	–	23.9 nM	–	> 10000 nM	7.8 nM	845 nM	800 nM	18.9 nM	801 nM
O=S(=O)(C1CC1)n1cc(-c2nccc(Nc3cc(N4C[C@H]5C[C@@]5(CO)C4)c(C#Cc4cnn(C(F)(F)F)c4)cn3)n2)cn1 [Example 333, ((1 S,5S)-3-(2-((2-(1-(Cyclopropylsulfonyl)-1H-pyrazol-4-yl)pyrimidin-4-yl)amino)-5-((1-(trifluoromethyl)-1H-pyrazol-4-yl)ethynyl)pyridin-4-yl)-3-azabicyclo[3.1.0]hexan-1-yl)methanol]	–	13 nM	–	> 10000 nM	–	255 nM	–	17.8 nM	–	> 10000 nM	3.5 nM	245 nM	133 nM	6.8 nM	240 nM
